Read-outs that look alike come from different tables or passages of the source.
Assays:
GST-MCL-1 = GST-MCL-1 (Homo sapiens, UniProt Q07820); assay: TR-FRET MCL-1 binding assay (competition with probe F-Bak)
Procedure, shortened: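 Displacement of F-Bak from GST-MCL-1 is detected by time-resolved FRET with a Tb-labelled anti-GST antibody, with excitation 340/35 nm and emission 520/525 and 495/510 nm, after 2 hours at room temperature. Compounds were titrated in 11 three-fold steps starting at 25 μM final, in buffer alone or in 10% HS.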

[1] = test system: AMO-1 human multiple myeloma tumor cell line; assay: AMO-1 cell viability assay (CellTiter-Glo, 24 hours); assay type: cell-based; conditions: Homo sapiens, AMO1, 24 h, read-out: AMO-1 Viability IC50 (μM, 10% FBS), 10% FBS, 24 hours of compound treatment
[2] = test system: NCI-H929 human multiple myeloma tumor cell line; assay: NCI-H929 cell viability assay (CellTiter-Glo, 24 hours); assay type: cell-based; conditions: Homo sapiens, NCI-H929, 24 h, read-out: H929 Viability IC50 (μM, 10% FBS), 10% FBS, 24 hours of compound treatment
[3] = MCL-1 Binding Ki (nM, 10% HS), in the presence of 10% HS (human serum)
[4] = without HS, read-out: MCL-1 Binding Ki

Sequence of GST-MCL-1 (Q07820 whole entry): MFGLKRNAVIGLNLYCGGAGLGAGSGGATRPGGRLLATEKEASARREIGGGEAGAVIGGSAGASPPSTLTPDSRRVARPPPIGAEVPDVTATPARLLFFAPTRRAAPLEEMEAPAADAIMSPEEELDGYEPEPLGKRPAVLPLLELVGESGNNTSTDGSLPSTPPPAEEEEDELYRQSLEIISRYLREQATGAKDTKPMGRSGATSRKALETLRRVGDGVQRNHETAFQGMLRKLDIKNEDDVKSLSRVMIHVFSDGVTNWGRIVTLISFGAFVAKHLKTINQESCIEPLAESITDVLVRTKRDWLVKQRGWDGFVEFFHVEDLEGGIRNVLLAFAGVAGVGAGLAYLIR

Compound | Ki (GST-MCL-1; [3]) | Ki (GST-MCL-1; [4]) | IC50 [1] | IC50 [2]
Cc1c(Cl)c2c(Cl)c(C)c1-c1c(-c3ccc(F)cc3)sc3ncnc(c13)O[C@@H](C(=O)O)Cc1cc(ccc1OCc1ccnc(-c3ccc(OCCN4CC5(COC5)C4)cc3)n1)OC[C@@H](CN1CCN(C)CC1)O2 [Example 165, (7R,16R)-19,23-dichloro-1-(4-fluorophenyl)-20,22-dimethyl-16-[(4-methylpiperazin-1-yl)methyl]-10-[(2-{4-[2-(2-oxa-6-azaspiro[3.3]heptan-6-yl)ethoxy]phenyl}pyrimidin-4-yl)methoxy]-7,8,15,16-tetrahydro-18,21-etheno-13,9-(metheno)-6,14,17-trioxa-2-thia-3,5-diazacyclononadeca[1,2,3-cd]indene-7-carboxylic Acid] | 0.267 nM | 0.031 nM | 3.53 nM | 8.56 nM
COCCOCCOCCO[C@H]1CC[C@H](c2nccc(COc3ccc4cc3C[C@H](C(=O)O)Oc3ncnc5sc(C6CCC6)c(c35)-c3c(C)c(Cl)c(c(Cl)c3C)O[C@H](CN3CCN(C)CC3)CO4)n2)CC1 [Example 131, (7R,16R)-19,23-dichloro-1-cyclobutyl-10-({2-[(1r,4r)-4-{2-[2-(2-methoxyethoxy)ethoxy]ethoxy}cyclohexyl]pyrimidin-4-yl}methoxy)-20,22-dimethyl-16-[(4-methylpiperazin-1-yl)methyl]-7,8,15,16-tetrahydro-18,21-etheno-13,9-(metheno)-6,14,17-trioxa-2-thia-3,5-diazacyclononadeca[1,2,3-cd]indene-7-carboxylic Acid] | 1.14 nM | 0.024 nM | 0.367 nM | 0.585 nM
COCCOCCOCCOCCOCCOCC1(c2nccc(COc3ccc4cc3C[C@H](C(=O)O)Oc3ncnc5sc(-c6ccc(F)cc6)c(c35)-c3c(C)c(Cl)c(c(Cl)c3C)O[C@H](CN3CCN(C)CC3)CO4)n2)CCCC1 [Example 76, (7R,16R)-19,23-dichloro-1-(4-fluorophenyl)-10-({2-[1-(2,5,8,11,14,17-hexaoxaoctadecan-1-yl)cyclopentyl]pyrimidin-4-yl}methoxy)-20,22-dimethyl-16-[(4-methylpiperazin-1-yl)methyl]-7,8,15,16-tetrahydro-18,21-etheno-13,9-(metheno)-6,14,17-trioxa-2-thia-3,5-diazacyclononadeca[1,2,3-cd]indene-7-carboxylic Acid] | 0.634 nM | 0.16 nM | 0.409 nM | 0.648 nM
Cc1c(Cl)c2c(Cl)c(C)c1-c1c(-c3ccc(F)cc3)sc3ncnc(c13)O[C@@H](C(=O)O)Cc1cc(ccc1OCc1ccnc(N3CCO[C@H](COCCOCC4COCCO4)C3)n1)OC[C@@H](CN1CCN(C)CC1)O2 (stereo partly drawn) [Example 103, (7R,16R)-19,23-dichloro-10-({2-[(2S)-2-({2-[(1,4-dioxan-2-yl)methoxy]ethoxy}methyl)morpholin-4-yl]pyrimidin-4-yl}methoxy)-1-(4-fluorophenyl)-20,22-dimethyl-16-[(4-methylpiperazin-1-yl)methyl]-7,8,15,16-tetrahydro-18,21-etheno-13,9-(metheno)-6,14,17-trioxa-2-thia-3,5-diazacyclononadeca[1,2,3-cd]indene-7-carboxylic Acid] | 0.172 nM | 0.033 nM | 0.281 nM | 0.578 nM
COCCOCCOCCOCC1(F)CC=C(c2nccc(COc3ccc4cc3C[C@H](C(=O)O)Oc3ncnc5sc(-c6ccc(F)cc6)c(c35)-c3c(C)c(Cl)c(c(Cl)c3C)O[C@H](CN3CCN(C)CC3)CO4)n2)CC1 (single isomer, unassigned) [Example 101, (7R,16R)-19,23-dichloro-1-(4-fluorophenyl)-10-({2-[(4S*)-4-fluoro-4-(2,5,8,11-tetraoxadodecan-1-yl)cyclohex-1-en-1-yl]pyrimidin-4-yl}methoxy)-20,22-dimethyl-16-[(4-methylpiperazin-1-yl)methyl]-7,8,15,16-tetrahydro-18,21-etheno-13,9-(metheno)-6,14,17-trioxa-2-thia-3,5-diazacyclononadeca[1,2,3-cd]indene-7-carboxylic Acid] | 0.235 nM | 0.02 nM | 0.195 nM | 0.298 nM
COCCOCCOCCOCc1cc(OC[C@H]2COCCO2)ccc1-c1nccc(COc2ccc3cc2C[C@H](C(=O)O)Oc2ncnc4sc(-c5ccc(F)cc5)c(c24)-c2c(C)c(Cl)c(c(Cl)c2C)O[C@H](CN2CCN(C)CC2)CO3)n1 [Example 155, (7R,16R)-19,23-dichloro-10-({2-[4-{[(2R)-1,4-dioxan-2-yl]methoxy}-2-(2,5,8,11-tetraoxadodecan-1-yl)phenyl]pyrimidin-4-yl}methoxy)-1-(4-fluorophenyl)-20,22-dimethyl-16-[(4-methylpiperazin-1-yl)methyl]-7,8,15,16-tetrahydro-18,21-etheno-13,9-(metheno)-6,14,17-trioxa-2-thia-3,5-diazacyclononadeca[1,2,3-cd]indene-7-carboxylic Acid] | 0.03 nM | 0.001 nM | 0.188 nM | 0.187 nM
COCCOCCOCCOc1cccc(-c2nccc(COc3ccc4cc3C[C@H](C(=O)O)Oc3ncnc5sc(-c6ccc(F)cc6)c(c35)-c3c(C)c(Cl)c(c(Cl)c3C)O[C@H](CN3CCN(C)CC3)CO4)n2)c1 [Example 104, (7R,16R)-19,23-dichloro-1-(4-fluorophenyl)-10-{[2-(3-{2-[2-(2-methoxyethoxy)ethoxy]ethoxy}phenyl)pyrimidin-4-yl]methoxy}-20,22-dimethyl-16-[(4-methylpiperazin-1-yl)methyl]-7,8,15,16-tetrahydro-18,21-etheno-13,9-(metheno)-6,14,17-trioxa-2-thia-3,5-diazacyclononadeca[1,2,3-cd]indene-7-carboxylic Acid] | 0.089 nM | 0.009 nM | 0.0488 nM | 0.0557 nM
Cc1c(Cl)c2c(Cl)c(C)c1-c1c(-c3ccc(F)cc3)sc3ncnc(c13)O[C@@H](C(=O)O)Cc1cc(ccc1OCc1ccnc(N3CC4(COC4)C3)n1)OC[C@@H](CN1CCN(C)CC1)O2 [Example 42, (7R,16R)-19,23-dichloro-1-(4-fluorophenyl)-20,22-dimethyl-16-[(4-methylpiperazin-1-yl)methyl]-10-{[2-(2-oxa-6-azaspiro[3.3]heptan-6-yl)pyrimidin-4-yl]methoxy}-7,8,15,16-tetrahydro-18,21-etheno-9,13-(metheno)-6,14,17-trioxa-2-thia-3,5-diazacyclononadeca[1,2,3-cd]indene-7-carboxylic Acid] | 0.747 nM | 0.085 nM | 1.1 nM | 3.14 nM
COCCOCCOCCOCC1(C)CC=C(c2nccc(COc3ccc4cc3C[C@H](C(=O)O)Oc3ncnc5sc(-c6ccc(F)cc6)c(c35)-c3c(C)c(Cl)c(c(Cl)c3C)O[C@H](CN3CCN(C)CC3)CO4)n2)CC1 (single isomer, unassigned) [Example 112, (7R,16R)-19,23-dichloro-1-(4-fluorophenyl)-20,22-dimethyl-16-[(4-methylpiperazin-1-yl)methyl]-10-({2-[(4R*)-4-methyl-4-(2,5,8,11-tetraoxadodecan-1-yl)cyclohex-1-en-1-yl]pyrimidin-4-yl}methoxy)-7,8,15,16-tetrahydro-18,21-etheno-13,9-(metheno)-6,14,17-trioxa-2-thia-3,5-diazacyclononadeca[1,2,3-cd]indene-7-carboxylic Acid] | 0.217 nM | 0.012 nM | 0.132 nM | 0.283 nM

— patent publication US20250313572A1, “MACROCYCLIC MCL-1 INHIBITORS AND METHODS OF USE” (AbbVie Inc., priority 2017, published 2025)
